According to patent US10681909B2, “Herbicidal triazoles” (FMC Corporation, priority 2014, dated 2020):

Key:
velvetleaf [1] = assay: Test A preemergence; format: in vivo, Abutilon theophrasti; settings: 0 to 100 scale (0 no effect, 100 complete control)
From the text: (§1) Seeds of plant species selected from barnyardgrass (Echinochloa crus-galli), crabgrass, large (large crabgrass, Digitaria sanguinalis), kochia (Kochia scoparia), ragweed (common ragweed, Ambrosia elatior), foxtail, giant (giant foxtail, Setaria faberii), morningglory (Ipomoea spp.), pigweed (Amaranthus retroflexus), velvetleaf (Abutilon theophrasti), ryegrass, Italian (Italian ryegrass, Lolium multiflorum), wheat (Triticum aestivum), and corn (Zea mays) were planted into a blend of loam soil and sand and treated preemergence with a directed soil spray using test chemicals formulated in a non-phytotoxic solvent mixture which included a surfactant. At the same time, plants selected from these crop and weed species and also blackgrass (Alopecurus myosuroides), and galium (catchweed bedstraw, Galium aparine), were planted in pots containing the same blend of loam soil and sand and treated with postemergence applications of test chemicals formulated in the same manner. Plants ranged in height from 2 to 10 cm and were in the one- to two-leaf stage for the postemergence treatment. […] A dash (-) response means no test result.

corn [2] = assay: Test A postemergence; format: in vivo, Zea mays; settings: 0 to 100 scale (0 no effect, 100 complete control), approx. 10 d
From the text: as §1

pigweed [3] = assay: Test A postemergence; format: in vivo, Amaranthus retroflexus; settings: 0 to 100 scale (0 no effect, 100 complete control), approx. 10 d
From the text: as §1

foxtail, giant [4] = assay: Test A postemergence; format: in vivo, Setaria faberii; settings: 0 to 100 scale (0 no effect, 100 complete control), approx. 10 d
From the text: as §1

morningglory [5] = assay: Test A postemergence; format: in vivo, Ipomoea spp.; settings: 0 to 100 scale (0 no effect, 100 complete control), approx. 10 d
From the text: as §1

ducksalad = assay: Test B flooded paddy test; format: in vivo, Heteranthera limosa; settings: applied to paddy water at 2-leaf stage, visual rating after 13 to 15 d, scale 0 (no effect) to 100 (complete control)
From the text: (§2) At time of treatment, test pots were flooded to 3 cm above the soil surface, treated by application of test compounds directly to the paddy water, and then maintained at that water depth for the duration of the test. Treated plants and controls were maintained in a greenhouse for 13 to 15 d, after which time all species were compared to controls and visually evaluated. […] A dash (-) response means no test result.

barnyardgrass [6] = assay: Test B flooded paddy test; format: in vivo, Echinochloa crus-galli; settings: applied to paddy water at 2-leaf stage, visual rating after 13 to 15 d, scale 0 (no effect) to 100 (complete control)
From the text: as §2

crabgrass, large [7] = assay: Test A postemergence; format: in vivo, Digitaria sanguinalis; settings: 0 to 100 scale (0 no effect, 100 complete control), approx. 10 d
From the text: as §1

barnyardgrass [8] = assay: Test A postemergence; format: in vivo, Echinochloa crus-galli; settings: 0 to 100 scale (0 no effect, 100 complete control), approx. 10 d
From the text: as §1

corn [9] = assay: Test A preemergence; format: in vivo, Zea mays; settings: 0 to 100 scale (0 no effect, 100 complete control)
From the text: as §1

pigweed [10] = assay: Test A preemergence; format: in vivo, Amaranthus retroflexus; settings: 0 to 100 scale (0 no effect, 100 complete control)
From the text: as §1

sedge, umbrella = assay: Test B flooded paddy test; format: in vivo, Cyperus difformis; settings: applied to paddy water at 2-leaf stage, visual rating after 13 to 15 d, scale 0 (no effect) to 100 (complete control)
From the text: as §2

rice = assay: Test B flooded paddy test; format: in vivo, Oryza sativa; settings: applied to paddy water at 2-leaf stage, visual rating after 13 to 15 d, scale 0 (no effect) to 100 (complete control)
From the text: as §2

wheat [11] = assay: Test A postemergence; format: in vivo, Triticum aestivum; settings: 0 to 100 scale (0 no effect, 100 complete control), approx. 10 d
From the text: as §1

velvetleaf [12] = assay: Test A postemergence; format: in vivo, Abutilon theophrasti; settings: 0 to 100 scale (0 no effect, 100 complete control), approx. 10 d
From the text: as §1

crabgrass, large [13] = assay: Test A preemergence; format: in vivo, Digitaria sanguinalis; settings: 0 to 100 scale (0 no effect, 100 complete control)
From the text: as §1

wheat [14] = assay: Test A preemergence; format: in vivo, Triticum aestivum; settings: 0 to 100 scale (0 no effect, 100 complete control)
From the text: as §1

barnyardgrass [15] = assay: Test A preemergence; format: in vivo, Echinochloa crus-galli; settings: 0 to 100 scale (0 no effect, 100 complete control)
From the text: as §1

foxtail, giant [16] = assay: Test A preemergence; format: in vivo, Setaria faberii; settings: 0 to 100 scale (0 no effect, 100 complete control)
From the text: as §1

morningglory [17] = assay: Test A preemergence; format: in vivo, Ipomoea spp.; settings: 0 to 100 scale (0 no effect, 100 complete control)
From the text: as §1

Row | Compound | Plant response rating, Velvetleaf (velvetleaf [1]; 125 g ai/ha) | Plant response rating, Velvetleaf (velvetleaf [1]; 500 g ai/ha, approx. 10 d) | Plant response rating, Corn (corn [2]; 125 g ai/ha) | Plant response rating, Corn (corn [2]; 500 g ai/ha) | Plant response rating, Pigweed (pigweed [3]; 125 g ai/ha) | Plant response rating, Pigweed (pigweed [3]; 500 g ai/ha) | Plant response rating, Foxtail, Giant (foxtail, giant [4]; 125 g ai/ha) | Plant response rating, Foxtail, Giant (foxtail, giant [4]; 500 g ai/ha) | Plant response rating, Morningglory (morningglory [5]; 125 g ai/ha) | Plant response rating, Morningglory (morningglory [5]; 500 g ai/ha) | Plant response rating, Crabgrass, Large (crabgrass, large [7]; 125 g ai/ha) | Plant response rating, Crabgrass, Large (crabgrass, large [7]; 500 g ai/ha) | Plant response rating, Barnyardgrass (barnyardgrass [8]; 125 g ai/ha) | Plant response rating, Barnyardgrass (barnyardgrass [8]; 500 g ai/ha) | Plant response rating, Corn (corn [9]; 125 g ai/ha) | Plant response rating, Corn (corn [9]; 500 g ai/ha, approx. 10 d) | Plant response rating, Pigweed (pigweed [10]; 125 g ai/ha) | Plant response rating, Pigweed (pigweed [10]; 500 g ai/ha, approx. 10 d) | Plant response rating, Wheat (wheat [11]; 125 g ai/ha) | Plant response rating, Wheat (wheat [11]; 500 g ai/ha) | also measured
1 | CCCOc1nc(-c2ccc(F)cc2)nn1Cc1ccnc(C(F)(F)F)c1 [Compound 10] | 0 | 30 | 20 | 30 | 100 | 100 | 50 | 90 | 50 | 90 | 40 | 90 | 40 | 80 | 0 | 20 | 100 | 100 | 10 | 10 | Plant response rating, Ducksalad, Flood (ducksalad; 125 g ai/ha): 70; Plant response rating, Barnyardgrass, Flood (barnyardgrass [6]; 125 g ai/ha): 45; Plant response rating, Sedge, Umbrella, Flood (sedge, umbrella; 125 g ai/ha): 80; Plant response rating, Rice, Flood (rice; 125 g ai/ha): 20; Plant response rating, Velvetleaf (velvetleaf [12]; 125 g ai/ha): 50; Plant response rating, Velvetleaf (velvetleaf [12]; 500 g ai/ha): 80; Plant response rating, Crabgrass, Large (crabgrass, large [13]; 125 g ai/ha): 100; Plant response rating, Crabgrass, Large (crabgrass, large [13]; 500 g ai/ha, approx. 10 d): 100; Plant response rating, Wheat (wheat [14]; 125 g ai/ha): 0; Plant response rating, Wheat (wheat [14]; 500 g ai/ha, approx. 10 d): 20; Plant response rating, Barnyardgrass (barnyardgrass [15]; 125 g ai/ha): 30; Plant response rating, Barnyardgrass (barnyardgrass [15]; 500 g ai/ha, approx. 10 d): 100; Plant response rating, Foxtail, Giant (foxtail, giant [16]; 125 g ai/ha): 100; Plant response rating, Foxtail, Giant (foxtail, giant [16]; 500 g ai/ha, approx. 10 d): 100; Plant response rating, Morningglory (morningglory [17]; 125 g ai/ha): 10; Plant response rating, Morningglory (morningglory [17]; 500 g ai/ha, approx. 10 d): 20
2 | CCc1nc(-c2cccc(C(F)(F)F)c2)nn1Cc1ccnc(C(F)(F)F)c1 [Compound 11] | 0 | 0 | 20 | 50 | 80 | 100 | 20 | 60 | 80 | 90 | 20 | 60 | 0 | 50 | 0 | 0 | 30 | 100 | 10 | 20 | Plant response rating, Ducksalad, Flood (ducksalad; 250 g ai/ha): 0; Plant response rating, Barnyardgrass, Flood (barnyardgrass [6]; 250 g ai/ha): 0; Plant response rating, Sedge, Umbrella, Flood (sedge, umbrella; 250 g ai/ha): 0; Plant response rating, Rice, Flood (rice; 250 g ai/ha): 0; Plant response rating, Velvetleaf (velvetleaf [12]; 125 g ai/ha): 50; Plant response rating, Velvetleaf (velvetleaf [12]; 500 g ai/ha): 100; Plant response rating, Crabgrass, Large (crabgrass, large [13]; 125 g ai/ha): 20; Plant response rating, Crabgrass, Large (crabgrass, large [13]; 500 g ai/ha, approx. 10 d): 90; Plant response rating, Wheat (wheat [14]; 125 g ai/ha): 0; Plant response rating, Wheat (wheat [14]; 500 g ai/ha, approx. 10 d): 0; Plant response rating, Barnyardgrass (barnyardgrass [15]; 125 g ai/ha): 0; Plant response rating, Barnyardgrass (barnyardgrass [15]; 500 g ai/ha, approx. 10 d): 30; Plant response rating, Foxtail, Giant (foxtail, giant [16]; 125 g ai/ha): 20; Plant response rating, Foxtail, Giant (foxtail, giant [16]; 500 g ai/ha, approx. 10 d): 90; Plant response rating, Morningglory (morningglory [17]; 125 g ai/ha): 0; Plant response rating, Morningglory (morningglory [17]; 500 g ai/ha, approx. 10 d): 20
